{
  "source": "patent US20230227500A1",
  "about": "“NANOPARTICLE-LIKE DELIVERY SYSTEM” (Evox Therapeutics Ltd, priority 2019, published 2023)",
  "key": {"[1]": {"test": "In vivo delivery and biodistribution of Cy5-labelled SSO, IVIS imaging of dissected tissues", "design": "species or system NMRI mice", "conditions": "2.5 mg/kg SSO, MR10, i.v., 48 h, FIG. 2(B)", "experimental": "In order to investigate the in vivo delivery capacity and biodistribution profile of the peptide/SSO nanoparticles, Oct2815 peptide was formulated at a dose of 50 μg (2.5 mg/kg) of Cy5-labelled 2′-OMe/LNA mixmer-based SSO (at MR10) and then injected intravenously into NMRI mice. After 48 h of treatment, the fluorescence values were measured from the dissected tissues (brain, liver, lungs, heart, G.I. tract, spleen, muscles and kidneys) of the animals with an IVIS in vivo imager."}, "mice": {"tested_on": "mice", "test": "Tolerability of peptide/mRNA formulation after intravenous injection", "format": "in vivo", "conditions": "6.25 mg/kg of mRNA/25 mg/kg of peptide, i.v.", "experimental": "Delivery of mRNA was tested using the 246, Oct815 and Oct2815 peptides and a luciferase-encoding mRNA (Luc mRNA). Various peptides were formulated at 1.25 mg/kg of mRNA dosing, at a peptide-to-mRNA weight ratio 4. Oct2815 was also formulated at 6.25 mg/kg of mRNA dosing, at a peptide-to-mRNA weight ratio 4. The formulations were subsequently injected intravenously into NMRI mice. After 24 h of treatment, the mice were sacrificed and the lungs, heart, liver, spleen and kidneys dissected. Luciferase activity was measured in the dissected tissues by bioluminescence imaging on an IVIS in vivo imaging system.\nThe peptides of the invention are believed to be tolerated in a dose of up to 30 mg/kg in mice, which is at least 10-fold higher than the dose commonly known to be tolerated when using any CPP of the prior art in vivo."}, "HeLa pluc705 cells": {"tested_on": "HeLa pluc705 cells", "test": "HeLa pluc705 splice correction reporter, delivery of SSOs", "format": "cell-based", "conditions": "100 nM 2'OMe SSO, 24 h, MR3-MR10, FIG. 1B", "excerpt": "To evaluate the ability of peptides of the invention to effectively deliver SSOs into cells, the HeLa pluc705 splice correction reporter system was used as a model (FIG. 1A). In this assay, HeLa cells are stably transfected with a luciferase endocing sequence that is interrupted by the β-globin pre-mRNA carrying a crypting splice site. If the SSO is effectively delivered to the cells and reaches the cell nucleus, it masks the aberrant splicing site (depicted ON-705 on the right-hand side of FIG. 1A). By redirecting the splicing, it will give rise to the production of functional luciferase protein. The luciferase enzyme activity thus acts as a measure to assess the delivery efficacy of the SSOs. This model is known for being an excellent positive read-out system with wide dynamic range for evaluating and comparing the delivery of SSOs and different delivery vectors.\nThe peptides were formulated with 2′-O-methyl phosphorothioate (2′OMe)-based SSOs at different peptide-to-SSO molar ratios (MRs), namely MR3, MR5, MR7 and MR10. The HeLa pluc705 cells were treated with various peptide/SSO nanoformulations at 100 nM SSO concentration for 24 h. After this time, the luciferase activity was measured. Delivery efficacy was expressed as a fold-increase over the values from untreated (UT) cells (ie. fold increase in splice correction)."}, "HEK293T Stop-Light cells [2]": {"tested_on": "HEK293T Stop-Light cells", "test": "Cas9 RNP delivery, stop-light reporter gene editing (eGFP by FACS)", "format": "cell-based", "conditions": "FIG. 5B", "excerpt": "Delivery of proteins is another important modality for the peptides of the present invention. In order to investigate the ability of the peptides to deliver protein, a stop-light reporter system was employed. FIG. 5A illustrates the stop-light reporter system, which is a quick and simple system to evaluate indel formation in stably transduced cells. Cells are transfected with a construct containing an mCherry gene followed by two enhanced green fluorescent protein (eGFP) genes that are shifted out of frame by +1 and +2 nucleotides, respectively. The mCherry gene is constituently expressed, while the eGFP genes are only expressed if a double stranded break in the linker creates insertions or deletions of +/−1 or 2 bp. This occurs upon the effective delivery of Cas9 RNP system to the nucleus of cells, which leads to one of the two eGFP genes being in frame and thus expressed. […]\n5k HEK293T Stop-Light cells were treated with 50 ng ([…]) Cas9 that was formulated with various peptides at different peptide-to-Cas9 RNP MRs (50:1-100:1). After 72 h of treatment, eGFP expression was analysed by fluorescence-activated cell sorting (FACS) analysis. Gene editing efficiency was calculated as a percentage of cells in the cell population where eGFP expression was induced by the treatment."}, "HEK293T Stop-Light cells [3]": {"tested_on": "HEK293T Stop-Light cells", "test": "Effect of additives on Cas9 RNP delivery, stop-light reporter", "format": "cell-based", "conditions": "FIG. 11", "experimental": "In order to investigate the effect of additives on the efficacy of the peptides/nanoparticles of the invention a range of different additives were tested and the effect on delivery of Cas9 ribonuncleoprotein (RNP) was examined using the same stop-light reporter system described above and illustrated in FIG. 5.\nPeptides Oct215 or Oct2815 were tested. Cas9 RNP was formulated in HBG buffer (HEPES buffered glucose) with either glycerol, PEG, PVP10, PVP55, PVA18, PVA40 or PVA-PEG. Oct215 or 2815 was added and incubated at room temperature for 40 min to allow peptide nanoparticles to form (1.1:1 sgRNA to Cas9 and 1:150 RNP:CPP).\nFollowing incubation HEK293T Stop-Light cells were treated with the peptide RNP complex (25 ng Cas9 added to each well). After 72 h of treatment, eGFP expression was analysed by fluorescence-activated cell sorting (FACS) analysis. Gene editing efficiency was calculated as the percentage of eGFP expressing cells in the viable mCherry expressing population, mCherry being the marker for reporter construct expression and eGFP for gene editing of said construct."}},
  "note": "Where a SMILES comes first, the peptide text is derived from it. Bridges are numbered along the chain shown (N, C = ends). [ ]: non-standard residue; d: D form. R8 = C=CCCCCCC[C@@](C)(N)C(=O)O; S8 = C=CCCCCCC[C@](C)(N)C(=O)O; S5 = C=CCCC[C@](C)(N)C(=O)O",
  "data": [
    {"compound": "C=CCCCCCC[C@@](C)(NC(=O)[C@H](C)NC(=O)[C@H](CCCCN)NC(=O)[C@H](C)NC(=O)[C@H](CC(C)C)NC(=O)[C@H](CCCCN)NC(=O)[C@@](C)(CCCCCCC=C)NC(=O)[C@@H](N)CC(C)C)C(=O)N[C@@H](C)C(=O)N[C@@H](CCCCN)C(=O)N[C@@H](CC(C)C)C(=O)N[C@@H](CC(C)C)C(=O)N[C@@H](CCCCN)C(=O)N[C@@H](C)C(=O)N[C@@](C)(CCCCCCC=C)C(=O)N[C@@H](C)C(=O)N[C@@H](CCCCN)C(=O)N[C@@H](C)C(=O)N[C@@H](CC(C)C)C(N)=O", "note": "[Oct2815, H-L A(R8) K L A K A A(R8) A K L L K A A(S8) A K A L-NH2] (H-L[R8]KLAKA[R8]AKLLKA[S8]AKAL-NH2)", "values": [
      {"measurement": "accumulation of SSO in liver in comparison with SSO alone (fold enrichment)", "setting": "[1]", "result": 2.5, "unit": "fold"},
      {"measurement": "accumulation of SSO in lungs in comparison with SSO alone (fold enrichment)", "setting": "[1]", "result": 3.5, "unit": "fold"},
      {"measurement": "accumulation of SSO in spleen in comparison with SSO alone (fold enrichment)", "setting": "[1]", "result": 5, "unit": "fold"},
      {"measurement": "side-effects at very high dosing", "setting": "mice", "result": "without any apparent side-effects"}
    ]},
    {"compound": "H-L A K L A K A A(R8) A K L L K A A(S5) A K A L-NH2 (H-LAKLAKA[R8]AKLLKA[S5]AKAL-NH2; staple 8-15; SMILES CC(C)C[C@H](NC(=O)[C@H](C)NC(=O)[C@H](CCCCN)NC(=O)[C@H](C)NC(=O)[C@]1(C)CCCC=CCCCCCC[C@@](C)(NC(=O)[C@H](C)NC(=O)[C@H](CCCCN)NC(=O)[C@H](C)NC(=O)[C@H](CC(C)C)NC(=O)[C@H](CCCCN)NC(=O)[C@H](C)NC(=O)[C@@H](N)CC(C)C)C(=O)N[C@@H](C)C(=O)N[C@@H](CCCCN)C(=O)N[C@@H](CC(C)C)C(=O)N[C@@H](CC(C)C)C(=O)N[C@@H](CCCCN)C(=O)N[C@@H](C)C(=O)N1)C(N)=O) [compound 246]", "values": [
      {"measurement": "SSO delivery and splice switching activity (fold increase in splice correction, luciferase activity)", "setting": "HeLa pluc705 cells", "result": "able to mediate effective SSO delivery and induce strong splice switching activity"}
    ]},
    {"compound": "H-L A K L A K A A(R8) A K L L K A A(S8) A K A L-NH2 (H-LAKLAKA[R8]AKLLKA[S8]AKAL-NH2; staple 8-15; SMILES CC(C)C[C@H](NC(=O)[C@H](C)NC(=O)[C@H](CCCCN)NC(=O)[C@H](C)NC(=O)[C@]1(C)CCCCCCC=CCCCCCC[C@@](C)(NC(=O)[C@H](C)NC(=O)[C@H](CCCCN)NC(=O)[C@H](C)NC(=O)[C@H](CC(C)C)NC(=O)[C@H](CCCCN)NC(=O)[C@H](C)NC(=O)[C@@H](N)CC(C)C)C(=O)N[C@@H](C)C(=O)N[C@@H](CCCCN)C(=O)N[C@@H](CC(C)C)C(=O)N[C@@H](CC(C)C)C(=O)N[C@@H](CCCCN)C(=O)N[C@@H](C)C(=O)N1)C(N)=O) [Oct815]", "values": [
      {"measurement": "SSO delivery and splice switching activity (fold increase in splice correction, luciferase activity)", "setting": "HeLa pluc705 cells", "result": "able to mediate effective SSO delivery and induce strong splice switching activity"},
      {"measurement": "relative potency among peptides (Cas9 RNP gene editing)", "setting": "HEK293T Stop-Light cells [2]", "result": "most potent"}
    ]},
    {"compound": "H-L A(R8) K L A K A A A K L L K A A(S8) A K A L-NH2 (H-L[R8]KLAKAAAKLLKA[S8]AKAL-NH2; staple 2-15; SMILES CC(C)C[C@H](NC(=O)[C@H](C)NC(=O)[C@H](CCCCN)NC(=O)[C@H](C)NC(=O)[C@]1(C)CCCCCCC=CCCCCCC[C@@](C)(NC(=O)[C@@H](N)CC(C)C)C(=O)N[C@@H](CCCCN)C(=O)N[C@@H](CC(C)C)C(=O)N[C@@H](C)C(=O)N[C@@H](CCCCN)C(=O)N[C@@H](C)C(=O)N[C@@H](C)C(=O)N[C@@H](C)C(=O)N[C@@H](CCCCN)C(=O)N[C@@H](CC(C)C)C(=O)N[C@@H](CC(C)C)C(=O)N[C@@H](CCCCN)C(=O)N[C@@H](C)C(=O)N1)C(N)=O) [Oct215]", "values": [
      {"measurement": "gene editing efficiency (efficacy of cargo delivery) with PVA-PEG", "setting": "HEK293T Stop-Light cells [3]; 25 ng Cas9, 1:150 RNP:CPP, HBG buffer with PVA-PEG, 72 h", "result": "up to 60%"},
      {"measurement": "effect of additives on efficacy", "setting": "HEK293T Stop-Light cells [3]", "result": "enhanced still further by the presence of different additives"}
    ]}
  ]
}
